Laboratory results from US20170354629A1, “Method And Compositions For Treating Skin” (ELC Management LLC, priority 2011, published 2017).

Key:
[1] = system: per1 gene expression in skin cells; assay: observation of per1 gene expression in skin cells (no method given); type: cell-based; conditions: component commonly found in extracts of Echinacea
per1 gene expression = per1 gene expression luciferase reporter assay in keratinocytes; type: cell-based; conditions: normal human epidermal keratinocytes (NHEK) transfected with pGL4.11 per1/luciferase plasmid; 16 hours incubation with test material; values only in FIGS. 1 and 2
Method: Cichoric acid and […] purpurea extract ([…]) were tested to determine per1 gene expression. Normal human epidermal keratinocytes (NHEK) were diluted in […] with supplement S001-5 added (Gibco, Cascade Biologics, Invitrogen) to form a concentration of 3×10^4 and plated onto a black walled 96 well microtiter plate by adding 100 μl in each well. The plate was incubated for 3 hours at 37° C. in 5% CO2. The media was removed and remaining adhered cells rinsed with […], supplement free. A plasmid solution was prepared by diluting Tris-EDTA pH 8.0 buffer with plasmid pGL4.11 (DNA 2.0, Carlsbad, Calif.) to form a 1 mg/ml solution. This plasmid contained a per1 gene sequence and a luciferase reporter gene sequence. A transfection mixture was prepared by diluting […], supplement free, to form a solution with 0.31 μg/ml of plasmid (obtained by adding appropriate amount of plasmid solution prepared above), 1.28% PlusTM Reagent (Catalog No. 11514-015, Invitrogen, Carlsbad, Calif.), and 3.22% LipofectamineTM Transfection Reagent (Catalog No. 18324-012, Invitrogen, Carlsbad, Calif.). […] Immediately prior to reading, Bright-GloTM (Pro-Mega, Madison Wis.) was added to each well plate in the same volume as is currently in the well (e.g. a 1:1 dilution). Luminescence was measured in an LMaxTM Microplate Luminometer (Molecular Devices, Sunnyvale, Calif.).

Structure (SMILES)	per1 gene expression in skin cells [1]	per1 gene expression (luminescence of per1-luciferase reporter) (per1 gene expression)
O=C(/C=C/c1ccc(O)c(O)c1)O[C@@H](C(=O)O)[C@@H](O)C(=O)O [caftaric acid]	does not increase per1 gene expression	–
O=C(/C=C/c1ccc(O)c(O)c1)O[C@@H](C(=O)O)[C@@H](OC(=O)/C=C/c1ccc(O)c(O)c1)C(=O)O [cichoric acid]	–	stimulate per1 gene expression
